# Data: the supplement of paper PMC4932681
# Legend:
# T-47D Tam2 [1] = assay: relative IC50 (midpoint of fitted logistic curve, plateau may be below 50% inhibition; CellTiter-Glo viability); higher = less potent; conditions: 4-OH-tamoxifen in medium 1 µM; 72 h
# In short: (§1)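 Breast cancer cell lines and their resistant derivatives were seeded into 384-well plates containing library drugs at five concentrations across a 10 000-fold range, with resistant lines kept in medium with 1 μM of the selecting drug. After 72 h at 37 °C, CellTiter-Glo viability was read on a PHERAstar and normalised to vehicle-only and positive controls. Logistic dose–response fits in the Breeze pipeline gave drug sensitivity score, relative IC50 (curve midpoint) and top-dose inhibition.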
# BT-474 Tam2 [2] = assay: as above; conditions: 4-OH-tamoxifen in medium 1 µM; 72 h
# In short: as §1
# ZR-75-1 Tam1 [3] = assay: as above; conditions: 4-OH-tamoxifen in medium 1 µM; 72 h
# In short: as §1
# T-47D [4] = assay: as above; conditions: 72 h
# In short: as §1
# ZR-75-1 [5] = assay: as above; conditions: 72 h
# In short: as §1
# BT-474 Tam1 [6] = assay: as above; conditions: 4-OH-tamoxifen in medium 1 µM; 72 h
# In short: as §1
# MCF-7 Tam1 [7] = assay: as above; conditions: 4-OH-tamoxifen in medium 1 µM; 72 h
# In short: as §1
# MCF-7 [8] = assay: as above; conditions: 72 h
# In short: as §1
# BT-474 [9] = assay: as above; conditions: 72 h
# In short: as §1
# T-47D Tam2 [10] = assay: drug sensitivity score (DSS) (DSS (dimensionless)); higher = more sensitive; extreme values may be limits of the assay; conditions: 4-OH-tamoxifen in medium 1 µM; 72 h
# Method: (§2)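 FIMM FO2B library drugs were tested at 5 concentrations (10,000-fold range) for 72 h, with CellTiter-Glo viability normalised to DMSO and benzethonium chloride controls. The Drug Sensitivity Score (DSS) is computed from the fitted logistic dose-response curve (area-based; 0 = inactive). Resistant lines and the 'in 1µM tamoxifen' arms were tested in 1 µM 4-OH-tamoxifen.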
# BT-474 Tam2 [11] = assay: as above; conditions: 4-OH-tamoxifen in medium 1 µM; 72 h
# Method: as §2
# ZR-75-1 Tam1 [12] = assay: as above; conditions: 4-OH-tamoxifen in medium 1 µM; 72 h
# Method: as §2
# ZR-75-1 Tam2 [13] = assay: as above; conditions: 4-OH-tamoxifen in medium 1 µM; 72 h
# Method: as §2
# T-47D [14] = assay: as above; conditions: 72 h
# Method: as §2
# ZR-75-1 [15] = assay: as above; conditions: 72 h
# Method: as §2
# T-47D Tam1 [16] = assay: as above; conditions: 4-OH-tamoxifen in medium 1 µM; 72 h
# Method: as §2
# BT-474 Tam1 [17] = assay: as above; conditions: 4-OH-tamoxifen in medium 1 µM; 72 h
# Method: as §2
# MCF-7 Tam1 [18] = assay: as above; conditions: 4-OH-tamoxifen in medium 1 µM; 72 h
# Method: as §2
# MCF-7 [19] = assay: as above; conditions: 72 h
# Method: as §2
# BT-474 [20] = assay: as above; conditions: 72 h
# Method: as §2
# ZR-75-1 Tam2 [21] = assay: relative IC50 (midpoint of fitted logistic curve, plateau may be below 50% inhibition; CellTiter-Glo viability); higher = less potent; conditions: 4-OH-tamoxifen in medium 1 µM; 72 h
# In short: as §1
# T-47D Tam1 [22] = assay: as above; conditions: 4-OH-tamoxifen in medium 1 µM; 72 h
# In short: as §1
Structure (SMILES),relative IC50 (T-47D Tam2 [1]) [nM],relative IC50 (BT-474 Tam2 [2]) [µM],relative IC50 (ZR-75-1 Tam1 [3]) [nM],relative IC50 (T-47D [4]; 4-OH-tamoxifen in medium 1 µM) [nM],relative IC50 (ZR-75-1 [5]; 4-OH-tamoxifen in medium 0 µM) [nM],relative IC50 (ZR-75-1 [5]; 4-OH-tamoxifen in medium 1 µM) [nM],relative IC50 (BT-474 Tam1 [6]) [µM],relative IC50 (MCF-7 Tam1 [7]) [µM],relative IC50 (MCF-7 [8]; 4-OH-tamoxifen in medium 0 µM) [nM],relative IC50 (MCF-7 [8]; 4-OH-tamoxifen in medium 1 µM) [nM],relative IC50 (BT-474 [9]; 4-OH-tamoxifen in medium 0 µM) [µM],relative IC50 (BT-474 [9]; 4-OH-tamoxifen in medium 1 µM) [µM],drug sensitivity score (T-47D Tam2 [10]),drug sensitivity score (BT-474 Tam2 [11]),drug sensitivity score (ZR-75-1 Tam1 [12]),drug sensitivity score (ZR-75-1 Tam2 [13]),drug sensitivity score (T-47D [14]; 4-OH-tamoxifen in medium 0 µM),drug sensitivity score (T-47D [14]; 4-OH-tamoxifen in medium 1 µM),drug sensitivity score (ZR-75-1 [15]; 4-OH-tamoxifen in medium 0 µM),drug sensitivity score (ZR-75-1 [15]; 4-OH-tamoxifen in medium 1 µM),drug sensitivity score (T-47D Tam1 [16]),drug sensitivity score (BT-474 Tam1 [17]),drug sensitivity score (MCF-7 Tam1 [18]),drug sensitivity score (MCF-7 [19]; 4-OH-tamoxifen in medium 0 µM),drug sensitivity score (MCF-7 [19]; 4-OH-tamoxifen in medium 1 µM),drug sensitivity score (BT-474 [20]; 4-OH-tamoxifen in medium 0 µM),drug sensitivity score (BT-474 [20]; 4-OH-tamoxifen in medium 1 µM),relative IC50 (ZR-75-1 Tam2 [21]) [nM],relative IC50 (T-47D [4]; 4-OH-tamoxifen in medium 0 µM) [nM],relative IC50 (T-47D Tam1 [22]) [nM]
Cn1c(Nc2ccc(C(F)(F)F)cc2)nc2cc(Oc3ccnc(-c4ncc(C(F)(F)F)[nH]4)c3)ccc21 [RAF265],> 1000,> 1,> 1000,> 1000,> 1000,> 1000,> 1,> 1,> 1000,> 1000,> 1,> 1,0,0,0,0.002,0.294,0,0,0,8.26,0,0,0,0,0,0,,,
CNC(=O)c1ccc(N2C(=S)N(c3ccc(C#N)c(C(F)(F)F)c3)C(=O)C2(C)C)cc1F [Enzalutamide (MDV 3100)],> 10000,,> 10000,> 10000,> 10000,> 10000,,> 10,> 10000,,> 10,> 10,0,0.634,0,0,0,0,0,0,0,0,0,0,0.74,0,0,> 10000,> 10000,
Oc1nc(-c2ccc(C(F)(F)F)cc2)nc2c1CSCC2 [XAV-939],> 10000,,> 10000,> 10000,> 10000,> 10000,> 10,> 10,> 10000,,> 10,> 10,0,3.71,0,0.39,0,0,0,0,3.2,0,0,0,0.115,0,0,,> 10000,
CCCCC(=O)OCC(=O)[C@]1(O)Cc2c(O)c3c(c(O)c2[C@@H](O[C@H]2C[C@H](NC(=O)C(F)(F)F)[C@H](O)[C@H](C)O2)C1)C(=O)c1c(OC)cccc1C3=O [Valrubicin],1380,4.18,1280,1530,554,1320,3.12,,1450,1270,2.64,3.34,6.34,2.37,7.34,9.1,7.72,5.96,8.2,5.85,7.66,4.26,0.994,5.32,8.1,2.57,4.06,1130,768,1100
